The text below walks through data of ChEMBL document CHEMBL1201862, “PubChem BioAssay data set” (2004).

Among the targets are Cytochrome P450 2D6 (Homo sapiens, UniProt P10635); Cytochrome P450 3A4 (Homo sapiens, UniProt P08684); Cytochrome P450 2C9 (Homo sapiens, UniProt P11712).
Assay [1] concerns the target T1, Replicative DNA helicase DnaB (Mycobacterium tuberculosis, UniProt P9WMR3).
T1 sequence (P9WMR3 whole entry): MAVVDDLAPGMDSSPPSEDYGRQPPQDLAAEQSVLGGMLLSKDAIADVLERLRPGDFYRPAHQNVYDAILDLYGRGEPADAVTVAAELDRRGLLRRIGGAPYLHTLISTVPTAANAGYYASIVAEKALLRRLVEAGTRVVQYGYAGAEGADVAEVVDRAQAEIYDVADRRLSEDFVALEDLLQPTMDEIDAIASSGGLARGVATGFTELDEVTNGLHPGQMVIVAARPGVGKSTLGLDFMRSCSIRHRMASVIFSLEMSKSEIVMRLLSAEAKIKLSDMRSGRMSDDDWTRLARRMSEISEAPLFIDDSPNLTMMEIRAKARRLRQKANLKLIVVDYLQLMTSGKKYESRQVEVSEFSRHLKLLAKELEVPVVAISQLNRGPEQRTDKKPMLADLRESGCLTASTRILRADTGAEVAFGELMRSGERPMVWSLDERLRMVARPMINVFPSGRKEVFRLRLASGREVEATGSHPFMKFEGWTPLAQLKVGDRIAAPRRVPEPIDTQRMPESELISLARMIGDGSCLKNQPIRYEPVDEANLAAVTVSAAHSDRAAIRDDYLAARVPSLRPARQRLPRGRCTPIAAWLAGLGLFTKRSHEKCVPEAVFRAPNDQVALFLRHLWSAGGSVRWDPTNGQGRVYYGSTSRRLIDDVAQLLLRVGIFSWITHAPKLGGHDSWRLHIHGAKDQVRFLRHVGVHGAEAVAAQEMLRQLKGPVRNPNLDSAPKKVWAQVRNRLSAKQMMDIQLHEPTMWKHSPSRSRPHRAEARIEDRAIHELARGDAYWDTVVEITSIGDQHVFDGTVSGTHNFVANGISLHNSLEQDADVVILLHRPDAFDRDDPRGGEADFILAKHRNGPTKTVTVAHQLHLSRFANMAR
The assay is described as follows: DnaB intein splicing inhibitors, dose response, biochemical, cell-free fluorescence (AID 449749). It is filed as functional.

For a further assay, the target named is T2, Protein RecA (Mycobacterium tuberculosis, UniProt P9WHJ3).
T2 sequence (P9WHJ3 whole entry): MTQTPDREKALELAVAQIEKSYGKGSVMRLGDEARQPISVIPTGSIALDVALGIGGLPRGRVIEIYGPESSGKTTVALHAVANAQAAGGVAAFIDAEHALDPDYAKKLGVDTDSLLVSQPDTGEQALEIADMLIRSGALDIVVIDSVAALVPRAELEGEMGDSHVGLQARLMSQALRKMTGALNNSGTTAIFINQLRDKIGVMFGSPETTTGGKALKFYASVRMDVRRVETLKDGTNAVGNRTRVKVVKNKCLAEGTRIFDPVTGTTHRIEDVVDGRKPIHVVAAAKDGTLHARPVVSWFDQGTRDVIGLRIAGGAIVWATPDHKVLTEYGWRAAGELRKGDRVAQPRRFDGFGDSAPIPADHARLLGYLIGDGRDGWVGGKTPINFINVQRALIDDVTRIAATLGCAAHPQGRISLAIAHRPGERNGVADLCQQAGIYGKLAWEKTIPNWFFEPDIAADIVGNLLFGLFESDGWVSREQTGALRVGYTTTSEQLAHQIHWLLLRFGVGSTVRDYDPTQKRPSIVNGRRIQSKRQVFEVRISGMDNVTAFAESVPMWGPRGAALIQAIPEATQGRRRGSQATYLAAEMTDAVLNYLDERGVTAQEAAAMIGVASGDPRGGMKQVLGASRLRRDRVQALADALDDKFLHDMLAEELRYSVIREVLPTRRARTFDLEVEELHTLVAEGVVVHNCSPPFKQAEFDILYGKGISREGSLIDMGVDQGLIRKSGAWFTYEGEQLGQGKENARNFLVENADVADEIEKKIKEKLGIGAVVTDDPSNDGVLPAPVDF
Kind of assay: Fluorescence Cell-Free Homogeneous Dose Retest to Identify Inhibitors of RecA-Intein Splicing Activity. [Related pubchem assays (depositor defined):AID2097, AID2223, AID489010, AID492950]. Format: functional.

The nature of assay [2]: Luminescence Cell-Based Dose Confirmation HTS to Identify Activators of 5'UTR Stem-Loop Driven Alpha-Synuclein mRNA Translation in H4 Neuroglioblastoma Cells. [Related pubchem assays: 1829 (Project Summary), 1814 (Primary HTS)]. Format: functional.
Assay [3] is described as follows: Luminescence Cell-Based Dose Response HTS to Identify Activators of Luciferase Translation or Activity in H4 […] Cells. [Related pubchem assays: 1829 (Project Summary), 1814 (Primary HTS)]. Format: functional.
In the next assay the test system is H4. The assay is described as follows: Luminescence Cell-Based Dose Response HTS to Identify Activators of 5'UTR Stem-Loop Driven Prion Protein mRNA Translation in H4 Neuroglioblastoma Cells. [Related pubchem assays: 1829 (Project Summary), 1814 (Primary HTS)]. As to conditions: Homo sapiens. It is filed as functional.
In another assay the target is T3, Cytochrome P450 1A2 (Homo sapiens, UniProt P05177).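 Note: PubChem cytochrome P450 panel assay, CYP1A2 panel member.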
T3 sequence (P05177 whole entry): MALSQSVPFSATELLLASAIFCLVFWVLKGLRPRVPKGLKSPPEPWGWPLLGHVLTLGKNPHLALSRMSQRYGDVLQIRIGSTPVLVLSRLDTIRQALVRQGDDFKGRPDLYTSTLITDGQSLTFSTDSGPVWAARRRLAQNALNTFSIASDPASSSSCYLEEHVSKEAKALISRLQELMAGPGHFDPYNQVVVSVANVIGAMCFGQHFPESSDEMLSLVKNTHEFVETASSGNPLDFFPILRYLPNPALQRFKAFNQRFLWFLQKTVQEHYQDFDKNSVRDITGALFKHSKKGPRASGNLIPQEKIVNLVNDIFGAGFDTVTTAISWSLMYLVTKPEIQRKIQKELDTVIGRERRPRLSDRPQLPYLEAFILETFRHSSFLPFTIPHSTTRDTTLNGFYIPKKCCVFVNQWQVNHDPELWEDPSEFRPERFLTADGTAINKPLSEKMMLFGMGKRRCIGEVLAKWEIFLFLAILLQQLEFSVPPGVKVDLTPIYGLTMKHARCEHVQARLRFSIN

For another assay, the system named is INS1. The assay is described as follows: beta cell apoptosis inhibitors, cytokine rescue, dose response, luminescence, retest (AID 449756).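 Note: cell death triggered by IL-1 beta plus TNF-alpha plus IFN-gamma mixture; protective hits raise ATP signal compared with cytokine alone wells.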 It is filed as functional, cell-based. To be noted: Rattus norvegicus.
The nature of assay [4]: Luminescence Cell-Based Dose Retest to Confirm Inhibitors of Cancer Stem Cells. [Related pubchem assays (depositor defined):AID2717, AID2721]. It is filed as functional. To be noted: Homo sapiens.
Another assay concerns the target Cytochrome P450 2C19 (Homo sapiens, UniProt P33261). Kind of assay: Cytochrome panel assay with activity outcomes. Panel member name: p450-cyp2c19 Compounds with AC50 equal or less than 10 uM are considered active. To be noted: read-out: AC50. It is filed as functional.

The source made the active and inactive calls.

Cytochrome P450 3A4, sequence (P08684 whole entry): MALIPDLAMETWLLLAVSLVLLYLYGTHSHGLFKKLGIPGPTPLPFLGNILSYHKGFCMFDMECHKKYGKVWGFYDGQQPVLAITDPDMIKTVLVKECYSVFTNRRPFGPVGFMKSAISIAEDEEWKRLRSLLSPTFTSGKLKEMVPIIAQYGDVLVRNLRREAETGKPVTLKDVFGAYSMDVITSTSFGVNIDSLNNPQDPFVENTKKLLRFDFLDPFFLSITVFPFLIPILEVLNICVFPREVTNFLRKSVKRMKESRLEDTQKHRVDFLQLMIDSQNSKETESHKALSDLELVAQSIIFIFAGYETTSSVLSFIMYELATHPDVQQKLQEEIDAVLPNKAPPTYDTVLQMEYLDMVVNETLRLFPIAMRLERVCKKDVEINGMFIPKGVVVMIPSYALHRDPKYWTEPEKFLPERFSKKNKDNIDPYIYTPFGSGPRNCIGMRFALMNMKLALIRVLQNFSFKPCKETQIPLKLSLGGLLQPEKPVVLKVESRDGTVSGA
Cytochrome P450 2D6, sequence (P10635 whole entry): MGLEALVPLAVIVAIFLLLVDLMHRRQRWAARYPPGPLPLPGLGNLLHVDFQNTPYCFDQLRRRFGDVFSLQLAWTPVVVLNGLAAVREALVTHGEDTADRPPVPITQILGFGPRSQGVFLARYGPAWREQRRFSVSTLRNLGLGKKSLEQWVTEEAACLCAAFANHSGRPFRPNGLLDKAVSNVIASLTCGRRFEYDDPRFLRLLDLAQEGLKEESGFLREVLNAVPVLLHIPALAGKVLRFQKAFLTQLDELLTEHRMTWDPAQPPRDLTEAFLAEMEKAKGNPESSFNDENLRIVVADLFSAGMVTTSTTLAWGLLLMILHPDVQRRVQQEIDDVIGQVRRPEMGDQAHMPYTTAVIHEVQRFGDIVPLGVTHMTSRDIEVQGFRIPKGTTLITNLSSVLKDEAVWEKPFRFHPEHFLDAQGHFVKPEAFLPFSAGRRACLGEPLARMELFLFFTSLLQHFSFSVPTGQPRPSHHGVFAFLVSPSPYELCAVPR
Cytochrome P450 2C9, sequence (P11712 whole entry): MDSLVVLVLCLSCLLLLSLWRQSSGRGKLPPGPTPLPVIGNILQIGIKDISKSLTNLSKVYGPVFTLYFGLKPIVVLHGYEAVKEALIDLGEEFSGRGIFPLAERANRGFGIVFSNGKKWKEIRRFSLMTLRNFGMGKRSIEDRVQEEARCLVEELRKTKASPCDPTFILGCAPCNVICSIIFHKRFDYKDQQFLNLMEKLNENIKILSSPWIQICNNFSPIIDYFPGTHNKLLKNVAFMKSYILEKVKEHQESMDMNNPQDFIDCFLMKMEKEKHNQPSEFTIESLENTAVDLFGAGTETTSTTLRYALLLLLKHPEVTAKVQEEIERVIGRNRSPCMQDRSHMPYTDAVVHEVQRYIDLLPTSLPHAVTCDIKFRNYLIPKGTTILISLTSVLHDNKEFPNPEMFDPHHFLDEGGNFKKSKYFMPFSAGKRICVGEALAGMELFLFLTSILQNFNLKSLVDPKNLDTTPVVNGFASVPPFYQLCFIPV
Cytochrome P450 2C19, sequence (P33261 whole entry): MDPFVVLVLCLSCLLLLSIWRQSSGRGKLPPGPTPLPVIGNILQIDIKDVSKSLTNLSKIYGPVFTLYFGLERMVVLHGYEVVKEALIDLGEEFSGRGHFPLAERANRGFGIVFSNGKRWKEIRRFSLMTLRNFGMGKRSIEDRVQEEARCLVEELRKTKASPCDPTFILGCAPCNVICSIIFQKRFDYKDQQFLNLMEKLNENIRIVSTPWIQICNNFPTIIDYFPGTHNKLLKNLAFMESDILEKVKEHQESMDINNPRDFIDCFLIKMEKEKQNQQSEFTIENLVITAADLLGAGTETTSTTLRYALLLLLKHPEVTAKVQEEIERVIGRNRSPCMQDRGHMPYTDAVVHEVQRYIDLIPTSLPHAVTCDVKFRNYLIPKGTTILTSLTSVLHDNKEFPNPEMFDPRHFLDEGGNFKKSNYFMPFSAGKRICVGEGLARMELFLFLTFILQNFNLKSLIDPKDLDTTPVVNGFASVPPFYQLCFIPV

What is called AC50 is the midpoint of the concentration-response curve, whichever way the signal moves. One may read the EC50 as the concentration giving half of the maximal effect. With `COc1ccc(C(c2c(C)n[nH]c2O)c2c(C)n[nH]c2O)cc1Br`, the AC50 in [1] is 0.32 µM (active). On Protein RecA, the EC50 is 0.289 µM (active).
`CCc1cc2c(nc1CC)CCN(CC/C(C)=N/OC[C@H]1O[C@H](c3ccccc3)C=C[C@@H]1Oc1ccc(OC)cc1)C2`: the AC50 at Cytochrome P450 2D6, at Cytochrome P450 3A4 and on Cytochrome P450 2C9 was 6.31 µM (inconclusive) in each case.
As to `Cc1cc(C(=O)CSc2cccc[n+]2[O-])c(C)n1-c1ccc(Br)cc1`, the EC50 is < 0.1 µM (active) in assay [2], 55.6 µM (active) in [3] and > 120 µM (not active) with H4.
In the case of `Cc1ccc2nsnc2c1NS(=O)(=O)c1c(C)ccc2nsnc12`, in assay [1], the AC50 is 37.8 µM (active). Besides, the EC50 at Protein RecA is 24.8 µM (active).
For `Cc1ccc(C(=O)NC(=S)NCC(=O)c2ccccc2)cc1`, the half-maximal activity concentration (AC50) at Cytochrome P450 1A2 is 2.24 µM (inconclusive); at Cytochrome P450 3A4 it was 8.91 µM (inconclusive); on Cytochrome P450 2C9, 2.51 µM (inconclusive).
With `COc1ccc(CCc2nc(-c3cccs3)no2)cc1`, the EC50 is 19.2 µM (active) in [2], 6.22 µM (active) in assay [3] and 23.3 µM (active) in the assay with H4.
In the same order, the values of `O=C(Nc1cccn2ncnc12)c1ccccc1` are > 120 µM (not active), 14.8 µM (active) and 23.5 µM (active).
On to `Cc1ccccc1C(=O)N1CCN(c2ccc(NC(=O)c3cccnc3)cc2)CC1`, for which, in the assay on INS1, the AC50 was 7.89 µM (active).
For the compound `Cc1n[nH]c(O)c1C(c1ccc([N+](=O)[O-])cc1)c1c(C)n[nH]c1O`, the AC50 in [1] was 0.704 µM (active). In addition, at Protein RecA, the concentration for a half-maximal effect (EC50) was 0.27 µM (active).
`Cc1ccccc1NC(=O)C1Cc2ccccc2CN1C(=O)c1ccco1` (centres undefined): the 50% effective concentration (EC50) in assay [2] is 35.6 µM (active); in assay [3] it was 39.3 µM (active); in the assay with H4 it was 12.7 µM (active).
As to `CCOC(=O)C(=NCCCN1CCOCC1)NNc1cccc(C(F)(F)F)c1`, in assay [4], the concentration at half-maximal activity (AC50) is 8.17 µM (active).
With `Cc1csc2c(N3CCN(C(=O)c4ccc(C(C)(C)C)cc4)CC3)ncnc12`, the concentration at half-maximal activity (AC50) in the assay on INS1 is 13.2 µM (active).
Consider `CCOc1cc(/C=C2\C(=O)N(c3ccc(C(N)=O)cc3)N=C2C)ccc1OC(=O)c1cccs1`, for which, in [1], the half-maximal activity concentration (AC50) is 2.35 µM (active). For the same compound, the 50% effective concentration (EC50) on Protein RecA was 1.93 µM (active).
Turning to `C[C@](O)(C(=O)Nc1ccc(S(=O)(=O)c2ccccc2)cc1)C(F)(F)F`, the concentration at half-maximal activity (AC50) on Cytochrome P450 2C19 was 6.31 µM (inconclusive); at Cytochrome P450 2D6, 31.6 µM (inconclusive); on Cytochrome P450 1A2, 39.8 µM (inconclusive); on Cytochrome P450 3A4, 31.6 µM (inconclusive).
Regarding `O=C(Nc1ccccc1N(C(=O)c1ccco1)S(=O)(=O)c1cccs1)c1ccco1`, in assay [1], the AC50 was 5.6 µM (active). Also, the concentration giving a half-maximal response (EC50) on Protein RecA was 8.58 µM (active).
In the case of `CCOC(=O)c1cnn(-c2ccc(C(F)(F)F)cn2)c1N`, the EC50 in [2] is 21.1 µM (active); in assay [3], > 120 µM (not active); in the assay on H4, > 120 µM (not active).
`COc1ccccc1-c1nc(N2CCOCC2)c2ccccc2n1`: the AC50 on Cytochrome P450 2D6 is 12.6 µM (inconclusive); at Cytochrome P450 3A4 it was 15.8 µM (inconclusive).
`Fc1ccc(NC(S)=Nc2cc(-c3ccccc3)[nH]n2)cc1Cl`: the AC50 in assay [4] was 3.05 µM (active).
Take `COc1ccc(C(CC(=O)Nc2ccccn2)N2Cc3ccccc3C2=O)cc1` (centres undefined): the concentration giving a half-maximal response (EC50) in assay [2] was > 60 µM (not active); in assay [3], 16.4 µM (active); with H4, > 120 µM (not active).
As for `O=C(c1ccc(Cl)cc1)c1c[nH]c(C(=O)C(Cl)(Cl)Cl)c1`, the EC50 at Protein RecA was > 380 µM (inconclusive).
In the case of `COc1ccc(OC)c(/C=N/c2ccccc2-c2nc3ccccc3[nH]2)c1`, the EC50 is 13.1 µM (active) in assay [2], 8.07 µM (active) in assay [3] and 10.8 µM (active) in the assay with H4.
For `Cc1ccc(-c2nnc(-c3ccc4ccccc4c3)o2)cc1`, the AC50 was 6.31 µM (inconclusive) at Cytochrome P450 3A4 and 5.01 µM (inconclusive) at Cytochrome P450 2C9.
As to `O=C(C1CCCN(S(=O)(=O)c2ccc([N+](=O)[O-])cc2)C1)N1CCCCC1` (centres undefined), in [4], the AC50 was > 195 µM (inactive).
As to `CC#CCOC(=O)c1c(C)nc2sc3c(c2c1N)CCC(O)C3` (centres undefined), in [4], the concentration at half-maximal activity (AC50) is 4.7 µM (active).
In the case of `COc1ccc(-c2ccc(C)cc2)cc1[C@H]1[C@@H]2C=CCC[C@@]2(C)C(=O)N1Cc1ccccc1`, in assay [4], the half-maximal activity concentration (AC50) is 3.36 µM (active).
With `CC1=NNC(=O)C1Cc1ccc(F)cc1` (centres undefined), the concentration at half-maximal activity (AC50) in assay [1] was 14 µM (active). Moreover, at Protein RecA, the EC50 was 14.2 µM (active).
Regarding `Cc1cc(C)n(C(=O)c2cc3sccc3[nH]2)n1`, the values for the half-maximal effective concentration (EC50) (in [2]; in [3]; in the assay on H4) were 6.99 µM (active), 14.6 µM (active) and 83.6 µM (inconclusive), respectively.
Consider `Cn1nc(/C=C/c2ccccc2)ccc1=O`, for which the concentration for a half-maximal effect (EC50) in assay [2] was 10.9 µM (active); in assay [3], 15.2 µM (active); with H4, 14.1 µM (active).
On to `O=c1c2c3nc4ccccc4nc3n(/N=C/c3ccccn3)c2ncn1-c1ccccc1`, for which the EC50 is > 120 µM (not active) in assay [2], 13 µM (active) in assay [3] and > 120 µM (not active) in the assay on H4.
As to `Clc1ccc(-c2cnc(Oc3ccccc3)nc2)cc1`, the half-maximal effective concentration (EC50) in assay [2] was 2.63 µM (active); in assay [3] it was 0.194 µM (active).
For `Cc1ccc(NC(=O)CC2SCCNC2=O)cc1Cl` (centres undefined), the EC50 is 14.5 µM (active) in assay [2], 30.9 µM (active) in assay [3] and > 120 µM (not active) in the assay with H4.
